Reference: ChEMBL document CHEMBL4177723, “Histone H3 peptides incorporating modified lysine residues as lysine-specific demethylase 1 inhibitors” (Bioorg Med Chem Lett, 2018)

Assays:
[1] = target: T1, Amine oxidase [flavin-containing] A (Homo sapiens, UniProt P21397)
T1 sequence (P21397 whole entry): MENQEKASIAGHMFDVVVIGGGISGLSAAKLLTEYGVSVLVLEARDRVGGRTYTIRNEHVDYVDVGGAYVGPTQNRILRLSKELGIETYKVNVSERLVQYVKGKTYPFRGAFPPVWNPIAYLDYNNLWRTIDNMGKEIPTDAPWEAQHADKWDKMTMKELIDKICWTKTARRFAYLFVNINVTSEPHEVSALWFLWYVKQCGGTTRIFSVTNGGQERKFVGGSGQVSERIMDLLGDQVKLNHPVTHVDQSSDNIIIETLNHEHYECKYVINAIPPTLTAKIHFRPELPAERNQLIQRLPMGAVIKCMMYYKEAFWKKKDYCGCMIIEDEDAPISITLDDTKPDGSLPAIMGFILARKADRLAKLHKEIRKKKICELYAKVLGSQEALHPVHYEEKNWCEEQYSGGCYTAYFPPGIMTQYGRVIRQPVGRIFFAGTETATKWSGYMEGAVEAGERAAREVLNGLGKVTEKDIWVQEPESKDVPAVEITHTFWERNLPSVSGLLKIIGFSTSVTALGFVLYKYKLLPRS

[2] = target: Lysine-specific histone demethylase 1A (Homo sapiens, UniProt O60341)
[3] = target: T2, Amine oxidase [flavin-containing] B (Homo sapiens, UniProt P27338)
T2 sequence (P27338 whole entry): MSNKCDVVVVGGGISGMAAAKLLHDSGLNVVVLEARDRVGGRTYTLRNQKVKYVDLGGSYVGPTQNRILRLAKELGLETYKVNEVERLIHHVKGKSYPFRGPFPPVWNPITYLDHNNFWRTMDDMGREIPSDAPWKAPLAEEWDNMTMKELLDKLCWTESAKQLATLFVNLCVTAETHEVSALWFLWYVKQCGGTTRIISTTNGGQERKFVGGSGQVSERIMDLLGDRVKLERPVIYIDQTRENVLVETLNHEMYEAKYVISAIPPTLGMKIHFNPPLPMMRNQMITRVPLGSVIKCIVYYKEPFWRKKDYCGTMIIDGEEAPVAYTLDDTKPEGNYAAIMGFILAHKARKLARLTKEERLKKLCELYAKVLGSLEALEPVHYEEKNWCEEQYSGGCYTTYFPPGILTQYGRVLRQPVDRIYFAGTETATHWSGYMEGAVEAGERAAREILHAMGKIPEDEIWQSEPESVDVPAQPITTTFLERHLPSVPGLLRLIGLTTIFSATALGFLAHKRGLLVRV

For `C[C@H](N)C(=O)N[C@@H](CCCNC(=N)N)C(=O)N[C@H](C(=O)N[C@@H](CCCCN[C@@H]1C[C@H]1c1ccccc1)C(=O)N[C@@H](CCC(N)=O)C(=O)N[C@H](C(=O)N[C@@H](C)C(=O)N[C@@H](CCCNC(=N)N)C(=O)N[C@@H](CCCCN)C(=O)N[C@@H](CO)C(=O)N[C@H](C(=O)O)[C@@H](C)O)[C@@H](C)O)[C@@H](C)O`, the IC50 [1] was > 10 µM, the IC50 [2] was 0.154 µM and the IC50 [3] was > 10 µM.
